Data set [1] concerns the target T1, human H3 receptor (Homo sapiens, UniProt Q9Y5N1).
T1 construct: purchased Perkin Elmer ES-392-M400UA; host or cells: CHO-K1 cells (recombinant expression), membrane preparation
The data set can be described thus: H3 Receptor Binding Test. The following applies: 50% inhibition of R(−)-α-methyl[3H]histamine (1 nM) binding; membrane preparation of human H3 receptor-expressing CHO-K1 cells.

For data set [2], the target named is T1, human H3 receptor. Briefly: [35S]GTP-γ-S Binding Test. Format: biochemical. The following applies: 50% inhibition of [35S]GTP-γ-S (0.2 nM) binding in presence of 10 nM R(−)-α-methylhistamine; human H3 receptor membrane preparation. As for the experimental part:
The same human H3 receptor membrane preparation as used in Test Example 1 (7.5 μg protein/200 μl), 3 μM GDP, 10 nM R(−)-α-methylhistamine and a test compound were reacted at 30° C. for 20 minutes. After completion of the reaction, [^35S]GTP-γ-S (0.2 nM) was added and reacted for an additional 30 minutes. After completion of the reaction, the reaction mixture was subjected to suction filtration through a glass filter (GF/C). The glass filter was washed three times with 20 mM HEPES washing solution (pH 7.4) containing 100 mM sodium chloride and 3 mM magnesium chloride. After washing, the glass filter was dried and a scintillator was added thereto, followed by measurement of radioactivity on the filter using a liquid scintillation counter. Binding of [^35S]GTP-γ-S in the absence of R(−)-α-methylhistamine was defined as non-specific binding, and the difference between total binding in the presence of R(−)-α-methylhistamine and non-specific binding was defined as specific binding of [^35S]GTP-γ-S. Fixed concentrations of [^35S]GTP-γ-S (0.2 nM) and R(−)-α-methylhistamine (10 nM) were reacted under the above conditions with each test drug at various concentrations to obtain an inhibition curve. The inhibition curve was used to determine the concentration (IC50) of each test drug required for 50% inhibition of [^35S]GTP-γ-S binding.
Background: GTPγS resists hydrolysis and so accumulates on activated G proteins.

A value given as a limit tells only on which side of the number the result lay.

A word on the melting point: it is the temperature of the solid-liquid transition. As usually defined, the IC50 is the concentration at which inhibition is half-maximal.

T1 sequence (Q9Y5N1 whole entry): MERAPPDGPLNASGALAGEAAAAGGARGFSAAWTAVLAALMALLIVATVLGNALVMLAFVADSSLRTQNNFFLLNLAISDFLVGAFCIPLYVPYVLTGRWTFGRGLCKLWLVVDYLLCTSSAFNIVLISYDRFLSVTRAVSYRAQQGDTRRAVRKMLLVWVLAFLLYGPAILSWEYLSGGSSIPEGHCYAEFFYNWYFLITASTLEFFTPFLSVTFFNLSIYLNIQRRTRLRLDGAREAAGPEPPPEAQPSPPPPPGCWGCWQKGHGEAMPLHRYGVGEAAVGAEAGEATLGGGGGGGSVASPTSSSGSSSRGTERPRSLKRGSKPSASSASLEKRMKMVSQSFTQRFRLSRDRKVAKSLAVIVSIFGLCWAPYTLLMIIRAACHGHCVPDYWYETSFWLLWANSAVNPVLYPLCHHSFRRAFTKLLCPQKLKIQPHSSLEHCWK

`Cl.O=C1CCc2cc(OC3CCN(C4CCC4)CC3)ccc2N1c1ccc(F)cc1` had a melting point of more than 250 °C. As for `C[C@@H]1CCCN1CCCOc1ccc2c(c1)CCC(=O)N2c1ccc(F)cc1` [Compound No. 6, 1-(4-fluorophenyl)-6-{3-[(2R)-2-methylpyrrolidin-1-yl]propoxy}-3,4-dihydroquinolin-2(1H)-one], the IC50 at human H3 receptor [1] is 1.1 nM; at human H3 receptor [2] it was 0.28 nM. On the same counts, the results for `C[C@@H]1CCCN1CCCOc1ccc2c(c1)CCC(=O)N2c1ccc(CN(C)C)cc1` [Compound No. 12, 1-{4-[(dimethylamino)methyl]phenyl}-6-{3-[(2R)-2-methylpyrrolidin-1-yl]propoxy}-3,4-dihydroquinolin-2(1H)-one] are 0.68 nM and 0.21 nM. The corresponding values for `C[C@@H]1CCCN1CCCOc1ccc2c(c1)CCC(=O)N2c1ccc(C(=O)N(C)C)cc1` [Compound No. 13, N,N-dimethyl-4-[6-{3-[(2R)-2-methylpyrrolidin-1-yl]propoxy}-2-oxo-3,4-dihydroquinolin-1(2H)-yl]benzamide] are 8.3 nM and 0.62 nM. On the same counts, the results for `O=C1CCc2cc(OC3CCN(C4CCC4)CC3)ccc2N1c1cnc2ccccc2c1` [Compound No. 58, 6-[(1-cyclobutylpiperidin-4-yl)oxy]-3,4-dihydro-2H-1,3′-biquinolin-2-one] are 1.6 nM and 0.4 nM. Consider `O=C1CCc2cc(OC3CCN(C4CCC4)CC3)ccc2N1c1ccc(F)cc1` [Compound No. 60, 6-[(1-cyclobutylpiperidin-4-yl)oxy]-1-(4-fluorophenyl)-3,4-dihydroquinolin-2(1H)-one], for which the IC50 on human H3 receptor [1] was 0.8 nM; on human H3 receptor [2], 0.23 nM. On the same counts, the results for `O=C1CCc2cc(OC3CCN(C4CCC4)CC3)ccc2N1c1cccc(F)c1` [Compound No. 69, 6-[(1-cyclobutylpiperidin-4-yl)oxy]-1-(3-fluorophenyl)-3,4-dihydroquinolin-2(1H)-one] are 0.65 nM and 0.2 nM. Take `O=C1CCc2cc(OC3CCN(C4CCC4)CC3)ccc2N1c1cncc(F)c1` [Compound No. 71, 6-[(1-cyclobutylpiperidin-4-yl)oxy]-1-(5-fluoropyridin-3-yl)-3,4-dihydroquinolin-2(1H)-one]: the IC50 at human H3 receptor [1] was found to be 1.4 nM; on human H3 receptor [2], 0.26 nM.

In the case of `O=C1CCc2cc(OC3CCN(C4CCC4)CC3)ccc2N1c1ccccc1` [Compound No. 72, 6-[(1-cyclobutylpiperidin-4-yl)oxy]-1-phenyl-3,4-dihydroquinolin-2(1H)-one], the IC50 at human H3 receptor [1] was 0.6 nM; on human H3 receptor [2], 0.16 nM. Take `N#Cc1ccc(N2C(=O)CCc3cc(OC4CCN(C5CCC5)CC4)ccc32)cc1` [Compound No. 73, 4-{6-[(1-cyclobutylpiperidin-4-yl)oxy]-2-oxo-3,4-dihydroquinolin-1(2H)-yl}benzonitrile]: the IC50 on human H3 receptor [1] was found to be 1 nM; at human H3 receptor [2], 0.23 nM.

These data come from patent US8609847B2, “Dihydroquinolinone derivatives” (Taisho Pharmaceutical Co., Ltd, priority 2009, dated 2013).
